Values of other authors as cited in patent US12127968B2, “Methods and devices for controlled delivery” (Femasys Inc., priority 2018, dated 2024).
Counter-ions that a name gives are not always drawn.

Tested on: ovulation
Conditions: patients whose only factor is ovulatory dysfunction

For CCN(CC)CCOc1ccc(C(=C(Cl)c2ccccc2)c2ccccc2)cc1 [Clomiphene citrate], the “patients in whom normal ovulation is restored” value is given as “about 80%”.
